Measured values published in patent publication US5789604A, “Isolation, characterization and structures of new antibiotic components produced by fungal culture 07F275” (priority 1993, dated 1998).

Legend:
Venturia inaequalis = experiment: in vivo evaluation as fungicidal agents, apple scab
Description: (§1) in Vivo Evaluation as Fungicidal Agents (Table 2)
(§2) Compounds are dissolved in acetone, diluted to the desired concentration with water and surfactant and sprayed onto the test plants. After drying, the test plants are treated with fungal inoculum. When disease symptom development is optimal, plants are rated for disease control. Inoculated untreated plants, solvent/surfactant treated plants and plants treated with a reference standard are used for comparison.
AS Apple scab Venturia inaequalis
(§3) Compounds are rated for control of each disease according to the rating scale shown below: […]

Plasmopara viticola = experiment: in vivo evaluation as fungicidal agents, grape downy mildew; conditions: for disease control rating GDM: grape downy mildew
Description: as §1, §2, §3

Botrytis cinerea = experiment: in vivo evaluation as fungicidal agents, pepper botrytis
Description: as §1, §2
PB Pepper botrytis Botrytis cinerea
as §3

Pyricularia oryzae = conditions: in vivo
Cercospora beticola = experiment: in vivo evaluation as fungicidal agents, sugar beet cercospora
Description: as §1, §2
SBC Sugar beet cercospora
as §3

Alternaria solani = experiment: in vivo evaluation as fungicidal agents, tomato early blight
Description: as §1, §2, §3

[1] = system: Erysiphe graminis f.sp. tritici; experiment: in vivo evaluation as fungicidal agents, wheat powdery mildew
Description: as §1, §2
WPM Wheat powdery mildew
as §3

Leptosphaeria nodurum = experiment: in vivo evaluation as fungicidal agents, wheat septoria nodorum
[2] = system: Fusarium oxysporum Schlechtend: Fr.f.sp. cucumerinim; experiment: in vitro inhibition of mycelial growth, FUSOXC; assay type: cell-based
Description: (§4) in Vitro Evaluation of the Inhibition of the Mycelial Growth by Target (Table 3)
(§5) Severe soilborne diseases such as damping off, seedling blight, crown rot, and root rot, among others are caused by certain plant pathogenic fungi. An in Vitro assay is conducted to determine whether test compounds will inhibit the mycelial growth of said fungi. Pathogens, the method of testing, and the rating system used are reported below.
(§6) General Procedure for the in Vitro Fungicide Screen Assay fungi included the following plant pathogens: FUSOXC Fusarium oxysporum Schlechtend: Fr.f.sp. cucumerinim J. H. Owen
(§7) The test compound (2.5-10 mg) is dissolved in 0.5 ml acetone, diluted with 4.5 ml sterile deionized water, and mixed with 95 ml of an autoclaved and partially cooled, chemically defined agar medium in a 250 ml flask. Test compounds that are insoluble are prepared as a fine suspension ultrasonically or with a glass tissue grinder, before addition to the medium. The chemically defined medium (CDM) used in these experiments is as follows:
(§8) CDM is sterilized by autoclaving or by filtration through a […]
(§9) The mixture of test compound and agar medium as described above is poured into several 100 mm×15 mm sterile plastic plates and allowed to solidify. The surface of each plate is inoculated with a single disc of mycelium and agar cut with an 8 mm diameter cork borer from actively growing cultures of assay fungi on a chemically defined agar medium. The plates are incubated at room temperature. Growth inhibition is determined when the mycelial growth on unamended control media has reached the edge of the petri plates. The time interval varies depending on the growth rate of the fungus. Each colony diameter is measured and compared with the untreated control and the percent inhibition is calculated as follows: [formula]
(§10) Each test includes a solvent blank consisting of the formulation without a test compound in addition to the untreated control.

[3] = system: Psudocercosporella herpotrichoides; experiment: in vitro inhibition of mycelial growth, PSDCHE; assay type: cell-based
Description: as §4, §5, §6
(§11) PSDCHE Psudocercosporella herpotrichoides Deighton
as §7, §8, §9, §10

Pythium ultimam = experiment: in vitro inhibition of mycelial growth, PYTHUL; assay type: cell-based; conditions: for activity against Pythium: in vitro
Description: as §4, §5, §6
PYTHUL Pythium ultimam Trow
as §7, §8, §9, §10

[4] = system: Rhizoctonia solani Kuehn AG1 1A; experiment: in vitro inhibition of mycelial growth, RHIZSO; assay type: cell-based
Description: as §4, §5, §6
(§12) RHIZSO Rhizoctonia solani Kuehn AG1 1A
as §7, §8, §9, §10

other fungi = experiment: in vitro inhibition of mycelial growth, other fungi; assay type: cell-based
Description: as §4, §5, §6, §11, §12
The test compound (2.5-10 mg) is dissolved in 0.5 ml acetone, diluted with 4.5 ml sterile deionized water, and mixed with 95 ml of an autoclaved and partially cooled, chemically defined agar medium in a 250 ml flask. […]
The mixture of test compound and agar medium as described above is poured into several 100 mm×15 mm sterile plastic plates and allowed to solidify. […] Growth inhibition is determined when the mycelial growth on unamended control media has reached the edge of the petri plates. […] Each colony diameter is measured and compared with the untreated control and the percent inhibition is calculated as follows: [formula]

Q: How did the “disease control rating AS” value (Venturia inaequalis; 12.5 ppm) turn out when `O=C1[C@@H]2O[C@@H]2C2(Oc3cccc4cccc(c34)O2)[C@]23O[C@]12[C@H](O)C=CC3=O` [07F275sigma] was run?
A: 0 (0)

Q: And the “disease control rating AS” value (Venturia inaequalis; 50.0 ppm)?
A: 0 (0)

Q: And the “disease control rating AS” value (Venturia inaequalis; 200.0 ppm)?
A: 0 (0)

Q: And the “disease control rating GDM” value (Plasmopara viticola; 12.5 ppm)?
A: 0 (0)

Q: What about the “disease control rating GDM” value (Plasmopara viticola; 50.0 ppm) of the same compound?
A: 4 (45-59)

Q: And the “disease control rating GDM” value (Plasmopara viticola; 200.0 ppm)?
A: 6 (75-89)

Q: What about the “reduction of disease severity, GDM” value (Plasmopara viticola; greenhouse test, 200 ppm) of the same compound?
A: about 85%

Q: And the “disease control, GDM” value (Plasmopara viticola; greenhouse test, dosages lower than 200 ppm)?
A: Little to no control

Q: And the “disease control rating PB” value (Botrytis cinerea; 12.5 ppm)?
A: 0 (0)

Q: What about the “disease control rating PB” value (Botrytis cinerea; 50.0 ppm) of the same compound?
A: 0 (0)

Q: What about the “disease control rating PB” value (Botrytis cinerea; 200.0 ppm) of the same compound?
A: 0 (0)

Q: And the “disease control, RB” value (Pyricularia oryzae)?
A: Little to no control

Q: And the “reduction of disease severity, RB” value (Pyricularia oryzae)?
A: about 85%

Q: What about the “disease control rating SBC” value (Cercospora beticola; 12.5 ppm) of the same compound?
A: 0 (0)

Q: What about the “disease control rating SBC” value (Cercospora beticola; 50.0 ppm) of the same compound?
A: 0 (0)

Q: And the “disease control rating SBC” value (Cercospora beticola; 200.0 ppm)?
A: 0 (0)

Q: What about the “disease control rating TEB” value (Alternaria solani; 12.5 ppm) of the same compound?
A: 0 (0)

Q: And the “disease control rating TEB” value (Alternaria solani; 50.0 ppm)?
A: 0 (0)

Q: And the “disease control rating TEB” value (Alternaria solani; 200.0 ppm)?
A: 0 (0)

Q: What about the “disease control rating WPM” value ([1]; 12.5 ppm) of the same compound?
A: 0 (0)

Q: And the “disease control rating WPM” value ([1]; 50.0 ppm)?
A: 0 (0)

Q: And the “disease control rating WPM” value ([1]; 200.0 ppm)?
A: 0 (0)

Q: What about the “disease control rating WSN” value (Leptosphaeria nodurum; 12.5 ppm) of the same compound?
A: 0 (0)

Q: And the “disease control rating WSN” value (Leptosphaeria nodurum; 50.0 ppm)?
A: 0 (0)

Q: And the “disease control rating WSN” value (Leptosphaeria nodurum; 200.0 ppm)?
A: 0 (0)

Q: What about the “mycelial inhibition FUSOXC” value ([2]; 1.0 ppm) of the same compound?
A: 0

Q: And the “mycelial inhibition FUSOXC” value ([2]; 10.0 ppm)?
A: 0

Q: And the “mycelial inhibition FUSOXC” value ([2]; 25.0 ppm)?
A: 0

Q: And the “mycelial inhibition PSDCHE” value ([3]; 1.0 ppm)?
A: 1

Q: What about the “mycelial inhibition PSDCHE” value ([3]; 10.0 ppm) of the same compound?
A: 1

Q: And the “mycelial inhibition PSDCHE” value ([3]; 25.0 ppm)?
A: 1

Q: What about the “mycelial inhibition PYTHUL” value (Pythium ultimam; 1.0 ppm) of the same compound?
A: 3

Q: What about the “mycelial inhibition PYTHUL” value (Pythium ultimam; 10.0 ppm) of the same compound?
A: 7

Q: And the “activity against Pythium” value (Pythium ultimam; 10 ppm)?
A: active

Q: What about the “mycelial inhibition PYTHUL” value (Pythium ultimam; 25.0 ppm) of the same compound?
A: 7

Q: What about the “activity against Pythium” value (Pythium ultimam; dosages lower than 10 ppm) of the same compound?
A: not at lower dosages

Q: And the “mycelial inhibition RHIZSO” value ([4]; 1.0 ppm)?
A: 1

Q: And the “mycelial inhibition RHIZSO” value ([4]; 10.0 ppm)?
A: 1

Q: What about the “mycelial inhibition RHIZSO” value ([4]; 25.0 ppm) of the same compound?
A: 1

Q: What about the “activity against other fungi in vitro” value (other fungi) of the same compound?
A: Little or no activity
